# Reference: ChEMBL document CHEMBL3769376, “Discovery of I-BRD9, a Selective Cell Active Chemical Probe for Bromodomain Containing Protein 9 Inhibition” (J Med Chem, 2016)
# Calls of active or inactive are those of the source. No cut-off for these calls is given here.
# Columns and labels:
# [1] = target: T1, Bromodomain-containing protein 9 (Homo sapiens) (UniProt Q9H8M2); test: Inhibition of BRD9 in human Kasumi-1 cells assessed as downregulation of CLEC1 gene at 1 uM after 6 hrs by qPCR method; assay type: cell-based
# T1 sequence (whole entry): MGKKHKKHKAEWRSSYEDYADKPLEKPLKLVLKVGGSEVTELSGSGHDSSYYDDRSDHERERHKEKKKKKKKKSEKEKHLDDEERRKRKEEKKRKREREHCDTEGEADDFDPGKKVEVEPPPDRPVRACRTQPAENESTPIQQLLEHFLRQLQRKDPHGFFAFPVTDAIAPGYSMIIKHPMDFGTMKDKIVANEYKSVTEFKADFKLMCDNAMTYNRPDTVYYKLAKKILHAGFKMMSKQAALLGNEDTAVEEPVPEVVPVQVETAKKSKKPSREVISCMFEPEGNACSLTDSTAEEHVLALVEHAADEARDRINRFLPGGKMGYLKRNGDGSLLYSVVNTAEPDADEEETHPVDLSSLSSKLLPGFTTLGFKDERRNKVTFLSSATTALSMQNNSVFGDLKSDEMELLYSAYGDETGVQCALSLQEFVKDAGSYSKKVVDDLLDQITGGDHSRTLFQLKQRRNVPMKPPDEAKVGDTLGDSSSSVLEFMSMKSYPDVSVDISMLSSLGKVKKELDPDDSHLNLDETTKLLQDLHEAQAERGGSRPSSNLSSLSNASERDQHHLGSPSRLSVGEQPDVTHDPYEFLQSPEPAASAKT
# [2] = target: T1, Bromodomain-containing protein 9 (Homo sapiens); test: Inhibition of BRD9 in human Kasumi-1 cells assessed as downregulation of FES gene at 1 uM after 6 hrs by qPCR method; assay type: cell-based
# [3] = target: T1, Bromodomain-containing protein 9 (Homo sapiens); test: Inhibition of BRD9 in human Kasumi-1 cells assessed as downregulation of DUSP6 gene at 1 uM after 6 hrs by qPCR method; assay type: cell-based
# [4] = target: T1, Bromodomain-containing protein 9 (Homo sapiens); test: Inhibition of BRD9 in human Kasumi-1 cells assessed as downregulation of SAMSN1 gene at 1 uM after 6 hrs by qPCR method; assay type: cell-based
# [5] = target: Bromodomain-containing protein 4 (Homo sapiens, UniProt O60885); test: Inhibition of BRD4 bromodomain 1 (unknown origin) incubated in dark for 30 mins by TR-FRET assay
# [6] = target: T2, Bromodomain-containing protein 9 (Homo sapiens, UniProt Q9H8M2); test: Inhibition of BRD9 (unknown origin) incubated in dark for 30 mins by TR-FRET assay
# T2 sequence (Q9H8M2 whole entry): T1 sequence (whole entry)
# [7] = Dissociation constant, pKa of the compound; assay type: physicochemical
IC50 [5],IC50 [6],Structure (SMILES),other results
–,–,COc1cc2c(cc1-c1c(C)noc1C)ncc1[nH]c(=O)n([C@H](C)c3ccccn3)c12,inhibition [1]: inactive; inhibition [2]: inactive; inhibition [3]: inactive; inhibition [4]: inactive
1260 nM,79.4 nM,CNC(=N)c1cc2c(=O)n(C)cc(-c3ccc(OC)c(OC)c3)c2s1,–
794 nM,12.6 nM,COc1cccc(-c2cn(C)c(=O)c3cc(C(=N)NC4CCS(=O)(=O)CC4)sc23)c1,–
50.1 nM,12.6 nM,COc1ccc(-c2cn(C)c(=O)c3cc(C(=O)NC4CCS(=O)(=O)CC4)sc23)cc1OC,–
> 50100 nM,3160 nM,CC(C)n1cc(-c2cccc(C(F)(F)F)c2)c2sc(C(=N)NC3CCS(=O)(=O)CC3)cc2c1=O,–
501 nM,10 nM,CN(C)c1cccc(-c2cn(C)c(=O)c3cc(C(=N)NC4CCS(=O)(=O)CC4)sc23)c1,–
398 nM,7.94 nM,COc1ccc(-c2cn(C)c(=O)c3cc(C(=N)NC4CCS(=O)(=O)CC4)sc23)cc1OC,–
12600 nM,5010 nM,COc1ccc(-c2cn(C)c(=O)c3cc(C(=O)N(C)C)sc23)cc1OC,–
20000 nM,200 nM,COc1ccc(-c2cn(C)c(=O)c3cc(C(=O)N4CCN(S(C)(=O)=O)CC4)sc23)cc1OC,–
15800 nM,3980 nM,COc1ccc(-c2cn(C)c(=O)c3cc(C(=O)N4CCCCC4)sc23)cc1OC,–
200 nM,126 nM,CNC(=O)c1cc2c(=O)n(C)cc(-c3ccc(OC)c(OC)c3)c2s1,–
2510 nM,39.8 nM,Cn1cc(-c2cccc(C#N)c2)c2sc(C(=N)NC3CCS(=O)(=O)CC3)cc2c1=O,–
1580 nM,39.8 nM,Cn1cc(-c2ccccc2)c2sc(C(=N)NC3CCS(=O)(=O)CC3)cc2c1=O,–
2510 nM,15.8 nM,Cn1cc(-c2cccc(C(F)(F)F)c2)c2sc(C(=N)NC3CCS(=O)(=O)CC3)cc2c1=O,pKa [7]: 8.4
